From US11136597B2, “Compositions for enhancing targeted gene editing and methods of use thereof” (Yale University, priority 2016, dated 2021)

Experiments:
[1] = tested on: 120 bp double-stranded DNA fragments containing β-globin sequences; assay: Gel mobility shift assay of SCD tcPNAs; type: binding, human; conditions: physiological conditions
Text: Each 120 bp dsDNA contained the binding site for the respective tcPNAs.

[2] = tested on: IVS2-654 (C→T) mutation within the β-globin/GFP fusion gene; assay: Ex vivo gene correction (% GFP+ cells, flow cytometry) in bone marrow cells from β-globin/GFP transgenic mice; type: cell-based, mouse; conditions: total bone marrow cells, 2 mg/ml PLGA NPs with donor DNA, 48 hr
Text: To assay for gene editing in a robust and quantitative manner, a transgenic mouse model was utilized with a β-globin/GFP fusion transgene of human β-globin intron 2 carrying a thalassemia-associated IVS2-654 (C→T) mutation embedded within the GFP coding sequence, resulting in incorrect splicing of β-globin/GFP mRNA and lack of GFP expression (Sazani, et al., Nat. Biotechnol., 20:1228-1233 (2002)). PNA-mediated triplex-formation induces DNA repair and recombination of the genomic site with a 60-nucleotide sense donor DNA that is homologous to a portion of the β-globin intron 2 sequence except for providing a wild-type nucleotide at the IVS2-654 position. Via recombination, the splice-site mutation is corrected and expression of functional GFP occurs (FIG. 1A) (McNeer, et al., Gene Therapy, 20:658-669 (2013); Bahal, et al., Curr. Gene Ther., 14:331-342 (2014)). […]
BD Bioscience kit catalog #558451 (BDImag™ Hematopoietic Progenitor Stem Cell Enrichment Set—DM) was used to isolate CD117 cells. […] To quantify GFP expression, after CD117 co-labelling, flow cytometry was performed using FACScaliburS by resuspending cells in PBS/1% FBS where green fluorescent cells are measured in the Fl1 channel and APC stained cells are in the Fl4 channel Antibodies for other markers were Ter119 (BD Pharmingen™ catalog #561033) and CD45 APC (BD Pharmingen™ catalog #561018).

[3] = tested on: skin fibroblasts from β-globin/GFP mice, IVS2-654 (C→T) mutation; assay: GFP/beta globin gene correction assay in mouse skin fibroblasts with DNA repair or other small molecule inhibitors; type: cell-based; conditions: inhibitor given 48 hours before tcPNA1 + donor DNA nanoparticles, flow cytometry 72 hours later
Protocol: Skin fibroblasts were isolated from the β-globin/GFP mice (intron 2 of human β-globin inserted with in the GFP coding regions) and grown in culture in DMEM medium plus 10% FCS. The intron contains the IVS2-654 (C→T) mutation. The gene correction assay is illustrated in FIG. 5A.
The fibroblasts were treated ex vivo with nanoparticles containing tcPNA1+ Donor DNA and 72 hours later flow cytometry analysis was performed to quantify the % gene correction based on the frequency of GFP positive cells. In some cases, DNA repair inhibitors or other small molecule inhibitors were given 48 hours before the nanoparticle treatment.

[4] = tested on: 120-bp DNA duplexes containing the respective target sequences (β-globin intron 2); assay: DNA binding gel shift assay of tcPNAs; design: species or system human; conditions: 120-bp dsDNA, 37 C, 10 mM NaPi pH 7.4
Protocol: For gel electrophoresis, synthetic 120 bp dsDNA targets were incubated with indicated oligomers at 37 C in low ionic strength buffer (10 mM NaPi, pH 7.4). The samples were separated on 10% non-denaturing polyacrylamide gels in 1×TBE buffer. The gels were run at […] for 1.5 hr. After electrophoresis, the gels were stained with 1×SYBR-Gold (catalog #S11494, Invitrogen) for 10 min, washed 2× with 1×TBE buffer, and then imaged using a gel documentation system (BioDoc-It System). The images were then inverted using Adobe Photoshop 6.0.

[5] = tested on: homology-dependent repair (HDR); assay: Luciferase reporter gene assay for homology-dependent repair (HDR) in CD117+ cells; type: cell-based, mouse; conditions: CD117+ cells
Protocol: An inactivating I-Sce1 site was cloned 56 amino acids into the firefly luciferase open reading frame under the control of a CMV promoter. The reporter construct also contains a promoterless luciferase gene used as a template for homologous recombination. A double-strand break in the luciferase reporter is created by in vitro digestion with the I-Sce I restriction enzyme (NEB #R0694L). Plasmid DNA was digested with I-Sce 1 for 1 hour at 37° C. at a ratio of 10 units enzyme to 1 μg DNA and then the enzyme was inactivated at 65° C. for 20 minutes. The linearization of the plasmid was confirmed for each digestion via gel electrophoresis and the linear plasmid was purified using the Qiagen Qiaquick spin columns. After separation CD117+ and CD117-cells from bone marrow of β-globin/GFP transgenic mice, cells were transfected using the Lonza 2b Nucleofector Device. 5×10^5 cells were transfected with 1 μg of either the luciferase reporter vector or a positive control firefly luciferase expression vector, along with 50 ng of a renilla luciferase expression plasmid as a transfection efficiency control. All transfections were performed in triplicate. After transfection the cells were plated at a density of 5×10^5 cells/ml in 12-well plates. After 24 hours incubation post transfection, luciferase activity was measured using the Promega Dual Luciferase Assay Kit. In each sample firefly luciferase activity was normalized to the renilla luciferase transfection control. Reporter reactivation was calculated as a ratio of normalized firefly luciferase activity in the cells transfected with the reporter plasmid to the positive control.
To test whether the above increases in DNA repair gene expression could be correlated with functional differences in DNA repair, a luciferase-based assay was used to quantify repair of DNA double-strand breaks (DSBs) by HDR. In this assay, repair of a DSB in a reporter plasmid via intramolecular homologous recombination creates (“reactivates”) a functional luciferase gene (FIG. 2H), and so the assay provides a measure of HDR capacity (FIG. 2J).

[6] = tested on: CD117+ cells from β-globin/GFP transgenic mice; assay: Ex vivo gene editing in pre-sorted CD117+ cells with or without SCF or c-Kit pathway kinase inhibitors; type: cell-based, mouse; conditions: for gene editing frequency in pre-sorted CD117+ cells in presence of kinase inhibitor: γtcPNA4/donor DNA NPs plus inhibitor: dasatinib 200 nM, MEK162 1.0 μM, BKM120 3.0 μM
Protocol: For CD117+ cell experiments, Iscove's Modified Dulbecco's Media (IMDM) media containing insulin (10 ng/ml), FCS (10%) and erythropoietin (1 U/ml) was used to culture CD117+ cells after isolation using magnetic separation. Where indicated, 3 μg/ml of SCF (Recombinant murine SCF, catalog #250-03, PeproTech, Rocky Hill, N.J.;) was added prior to nanoparticle treatment. 2 mg/ml of NPs were used to treat 50,000-100,000 CD117+ cells in triplicate for 48 hrs in the above media, followed by flow cytometry analyses as above. Inhibitors were used at concentrations of 200 nM (dasatinib), 1.0 μM (MEK162) and 3.0 μM (BKM120). Dasatanib was obtained from Cayman Chemical (Ann Arbor, Mich.; item #11498) and dissolved according to manufacturer's protocol. MEK162 and BKM120 were obtained from Dr. Harriet Kluger, Yale University.
BD Bioscience kit catalog #558451 (BDImag™ Hematopoietic Progenitor Stem Cell Enrichment Set—DM) was used to isolate CD117 cells. Enrichment for CD117 was confirmed by flow cytometry. CD117+ enriched cells were labeled with CD117-APC (BD Pharmingen™ catalog #558451) antibody. Cells were co-labelled with control IgG antibody (BD Pharmingen™ catalog #555746) for gating purposes. To quantify GFP expression, after CD117 co-labelling, flow cytometry was performed using FACScaliburS by resuspending cells in PBS/1% FBS where green fluorescent cells are measured in the Fl1 channel and APC stained cells are in the Fl4 channel Antibodies for other markers were Ter119 (BD Pharmingen™ catalog #561033) and CD45 APC (BD Pharmingen™ catalog #561018).
To explore the mechanism of the increased gene editing in CD117+ cells, the requirement of c-Kit-dependent signaling for elevated gene correction or whether CD117 simply serves as a marker for the increased susceptibility to gene editing was distinguished. To do this, γtcPNA4/donor DNA NP-mediated gene editing was assayed in pre-sorted CD117+ cells in the presence or absence of selected kinase inhibitors (FIG. 2D). Dasatinib, which inhibits the c-Kit kinase in addition to the BCR/Abl and Src kinases, reduced the gene editing from 7% to 2.0%.

Compound: H-KKK-TJTJTTJT-OOO-TCTTCTCTGTCTCCACAT-KKK-NH2 (TNTNTTNTTCTTCTCTGTCTCCACAT; listed as DNA, chemistry not fully specified) [SCD-tcPNA 3]
- binding to 120 bp double-stranded DNA fragments (gel mobility shift) [1]: binding

Compound: H-KKK-TTJJTJT-OOO-TCTCCTTAAACCTGTCTT-KKK-NH2 (TTNNTNTTCTCCTTAAACCTGTCTT; listed as DNA, chemistry not fully specified) [SCD-tcPNA 2]
- binding to 120 bp double-stranded DNA fragments (gel mobility shift) [1]: binding

Compound: H-KKK-JTTTJTTTJTJT-OOO-TCTCTTTCTTTCAGGGCA-KKK-NH2 (NTTTNTTTNTNTTCTCTTTCTTTCAGGGCA; miniPEG γ units, lysine caps, amide, chemistry not fully specified) [γtcPNA4]
- genome modification frequency (% GFP+ cells) [2]: 1.62%

Compound: C[C@@]1(CO)[C@H](O)CC[C@@]2(C)[C@H]1CC[C@H]1C[C@@H]3C[C@@]12CC[C@]3(O)CO [aphidicolin]
- effect on gene editing (% gene correction, GFP positive cells) [3]: boosts gene editing

Compound: H-KKK-TTJTTTJTTJTJ-OOO-CTCTTCTTTCTTGACAGG-KKK-NH2 (TTNTTTNTTNTNCTCTTCTTTCTTGACAGG; lysine caps, linker, C-terminal amide, chemistry not fully specified) [γtcPNA4-Scr, scrambled version of γtcPNA4 with the same base composition]
- binding to target site in duplex DNA (gel shift) [4]: No binding
- genome modification frequency (% GFP+ cells) [2]: no modification

Compound: Nc1cc(C(F)(F)F)c(-c2cc(N3CCOCC3)nc(N3CCOCC3)n2)cn1 [BKM120, reference compound]
- HDR repair activity (luciferase reactivation) in CD117+ cells [5]: diminished
- gene editing frequency in pre-sorted CD117+ cells in presence of kinase inhibitor [6]: 4.1%

Compound: O=C(c1cc(Cc2n[nH]c(=O)c3ccccc23)ccc1F)N1CCN(C(=O)C2CC2)CC1 [AZD-2281]
- effect on gene editing (% gene correction, GFP positive cells) [3]: boosts gene editing

Compound: Cn1cnc2c(F)c(Nc3ccc(Br)cc3F)c(C(=O)NOCCO)cc21 [MEK162, reference compound]
- HDR repair activity (luciferase reactivation) in CD117+ cells [5]: diminished
- gene editing frequency in pre-sorted CD117+ cells in presence of kinase inhibitor [6]: 2.6%

Compound: H-KKK-JJTJTTJ-OOO-CTTCTCCACAGGAGTCAG-KKK-NH2 (NNTNTTNCTTCTCCACAGGAGTCAG; listed as DNA, chemistry not fully specified) [SCD-tcPNA 1]
- binding to 120 bp double-stranded DNA fragments (gel mobility shift) [1]: binding

Compound: Cc1nc(Nc2ncc(C(=O)Nc3c(C)cccc3Cl)s2)cc(N2CCN(CCO)CC2)n1 [Dasatinib]
- fold reduction of gene editing frequency ([6]; CD117+ cells, inhibition of c-Kit kinase): ~4 fold
- gene editing frequency in pre-sorted CD117+ cells in presence of kinase inhibitor [6]: 2.0%

Compound: CC(C)c1cc(-c2n[nH]c(=O)n2-c2ccc3c(ccn3C)c2)c(O)cc1O [STA-9090/Ganetespib]
- effect on gene editing (% gene correction, GFP positive cells) [3]: enhances gene editing
